System: influenza virus (A/Aichi/2/68)
Assay: Inhibition of Influenza Virus Adsorbtion to Erythrocytes (hemagglutination of resialylated human erythrocytes)
Settings: relative to Me αDNeuAc = 1.0 (Table 8)
Text: The heptasaccharides can be evaluated as inhibitors of the influenza virus hemagglutination of the resialylated human erythrocytes.
^a Inhibition of influenza virus (A/Aichi/2/68) to resialylated

SMILES	Relative Potency
COC(=O)CCCCCOC1OC(CO)C(OC2OC(CO)C(OC3OC(CO)C(O)C(O)C3O)C(O)C2NC(C)=O)C(O)C1OC1OC(CO)C(OC2OC(COC3(C(=O)O)CC(O)C(NC(C)=O)C(C(O)C(O)CO)O3)C(O)C(O)C2O)C(O)C1NC(C)=O [Example 28A, 5-(methoxycarbonyl)pentyl 2-O-[5-acetamido-3,5-dideoxy-D-glycero-D-galactononulopyranosylonic acid (2→6)-β-D-galactopyranosyl-(1→4)-2-acetamido-2-deoxy-D-glycopyranosyl]-4-O-[β-D-galactopyranosyl-(1→4)-2-acetamido-2-deoxy-D-glucopyranosyl]-β-D-galactopyranoside]	1.9
COC(=O)CCCCCOC1OC(COC2OC(CO)C(OC3OC(COC4(C(=O)O)CC(O)C(NC(C)=O)C(C(O)C(O)CO)O4)C(O)C(O)C3O)C(O)C2NC(C)=O)C(O)C(OC2OC(CO)C(OC3OC(COC4(C(=O)O)CC(O)C(NC(C)=O)C(C(O)C(O)CO)O4)C(O)C(O)C3O)C(O)C2NC(C)=O)C1O [Example 30, 5-(Methoxycarbonyl)pentyl 3,6-di-O-{5-acetamido-3,5-dideoxy-D-glycero-D-galacto-2-nanulopyranosylonic acid(2→6)-β-galactopyranosyl(1→4)-2-acetamido-2-deoxy-β-D-glucopyranosyl}-β-D-galactopyranoside]	8.4
COC(=O)CCCCCOC1OC(CO)C(O)C(OC2OC(CO)C(OC3OC(COC4(C(=O)O)CC(O)C(NC(C)=O)C(C(O)C(O)CO)O4)C(O)C(O)C3O)C(O)C2NC(C)=O)C1OC1OC(CO)C(OC2OC(COC3(C(=O)O)CC(O)C(NC(C)=O)C(C(O)C(O)CO)O3)C(O)C(O)C2O)C(O)C1NC(C)=O [Example 27, 5-(Methoxycarbonyl)pentyl 2,3-di-O-{5-acetamido-3,5-dideoxy-D-glycero-D-galacto-2-nanulopyranosylonic acid(2→6)-β-D-galactopyranosyl(1→4)-2-acetamido-2-deoxy-β-D-glucopyranosyl}-β-D-galactopyranoside]	7.2
COC(=O)CCCCCOC1OC(CO)C(OC2OC(CO)C(OC3OC(COC4(C(=O)O)CC(O)C(NC(C)=O)C(C(O)C(O)CO)O4)C(O)C(O)C3O)C(O)C2NC(C)=O)C(O)C1OC1OC(CO)C(OC2OC(COC3(C(=O)O)CC(O)C(NC(C)=O)C(C(O)C(O)CO)O3)C(O)C(O)C2O)C(O)C1NC(C)=O [Example 28, 5-(Methoxycarbonyl)pentyl 2,4-di-O-{5-acetamido-3,5-dideoxy-D-glycero-D-galacto-2-nanulopyranosylonic acid(2→6)-β-D-galactopyranosyl(1→4)-2--acetamido-2-deoxy-β-D-glucopyranosyl}-β-D-galactopyranoside]	1.5

Source: US5220008A, “Oligosaccharide inhibitors for influenza virus” (priority 1991, dated 1993)
